Reference: publication PMC5617230, “The single cyclic nucleotide-specific phosphodiesterase of the intestinal parasite Giardia lamblia represents a potential drug target” (PLoS Neglected Tropical Diseases, 2017)
Where a name gives a salt, the structure may show the parent alone. Read-outs that look alike come from different tables or passages of the source.

How the values were obtained:
[1] = test system: G. lamblia WBC6 trophozoites; experiment: G. lamblia trophozoite proliferation assay (resazurin); type: cell-based, Giardia lamblia; details: for EC50: G. lamblia WBC6 trophozoites, 72 h anaerobic culture, read-out: Giardia cells EC50; for Effect on Giardia trophozoite proliferation: 50 μM inhibitor, 72 h culture, Fig 3B
Procedure: G. lamblia WBC6 (ATCC catalogue number 50803) trophozoites were grown under microaerophilic conditions in 11 ml culture tubes (Nunc, cat. 156758) containing TYI-S- 33 medium supplemented with 10% bovine serum and bovine bile according to standard protocols. Parasites were harvested by chilling the tubes on ice for 30 minutes to detach adherent cells and collected by centrifugation (900 x g, 10 minutes, 4°C). Encystation was induced using the two-step method as described previously by cultivating the trophozoites in bile-free medium for 44 hours and thereafter in medium (pH 7.85) containing porcine bile.
Test compounds were dissolved in DMSO and serially diluted in Giardia culture medium. G. lamblia WBC6 trophozoites were grown until adherent cells reached a confluency close to 100%. Cells were then chilled on ice for 20 min and adherent parasites were detached from the culture tube. Cultures were diluted to 5x10^3 cells/ml in growth medium (room temperature) and 100 μl aliquots were immediately added to wells of 96-well plates preloaded with the same volume of test compound dilutions. DMSO (solvent) controls were always included. Plates were incubated for 72 h at 37°C in a humid chamber with an anaerobic atmosphere. Adherent cells were then washed twice with 200 μl PBS before adding 200 μl of PBS containing […] resazurin and 1% glucose. After incubation for 4 h at 37°C, plates were read on a fluorescence plate reader (Wallac 1420 VICTOR^2, PerkinElmer) with excitation and emission wavelengths of 544 nm and 590 nm, respectively. Data were analyzed with the GraphPad Prism software package using a sigmoidal dose-response model for regression. All assays were done in quadruplicate and at least three independent experiments were performed.

[2] = molecular target: recombinant GlPDE(aa588-1371) (Giardia intestinalis, UniProt A0A644EZ75); experiment: biochemical; type: biochemical; details: for Activity against recombinant GlPDE in profiling assay: inhibitor at 100 μM, Fig 3A
Text: The DNA sequence comprising the catalytic domain (residues Gly-983 –Glu-1371) was amplified by PCR using genomic DNA of G. lamblia WBC6 and the primer pair GlPDE1cat-for (5'-[…]-3') and GlPDE1cat-rev (5'-[…]-3'). The PCR product was then cloned into the TA vector pCRII-TOPO (Invitrogen) yielding plasmid pCR-GlPDE1cat. To get a plasmid containing the sequence coding for the full length protein lacking the N-terminal transmembrane helices (Met-588 –Glu-1371) of GlPDE, a further PCR product was produced using the primer pair GlPDE1-Mfor (5'-[…]-3') and GlPDE1-LMrev (5'-[…]-3') and was cloned via NdeI (bold) and BsrGI into pCR-GlPDE1cat resulting in plasmid pCR-GlPDE1M. The inserts of both plasmid constructs were verified by sequencing and subcloned into two variants of the yeast expression vector pLT1 [42] using the restriction enzymes SalI (italic)/EcoRV or NdeI (bold)/EcoRV. The EcoRV cloning site originated from the multiple cloning site of the pCRII-TOPO vector. One pLT1 variant directs the expression of the Giardia protein alone, whereas the other adds an N-terminal hemagglutinin (HA) tag to allow detection of the recombinant protein. Transformation of the constructs into the PDE-deficient S. cerevisiae strain PP5 (MATa leu2-3 leu2- 112 ura3-52 his3-532 his4 cam pde1::URA3 pde2::HIS3) was carried out as described previously.
Yeast cell pellets were created exactly as described previously. Briefly, yeast was grown at 30°C in SC-leu medium to end log phase and thereafter again for 3.5 h in YPD to maximize protein expression. Washed cells were frozen in liquid nitrogen and stored at -70°C. Frozen cell pellets were thawed on ice and resuspended in an equal volume of ice-cold extraction buffer (50 mM HEPES, pH 7.5, 100 mM NaCl, 1x Complete protease inhibitor cocktail without EDTA (Roche Applied Science)). Cell lysates were produced by three passages through a high pressure homogenizer (French press at 20’000 psi, 4°C). Unbroken cells and cell debris were removed by centrifugation for 20 min at 16’000 RCF at 4°C. 25% glycerol was added to the cleared supernatant. Aliquots were snap-frozen in liquid nitrogen and stored at -70°C for subsequent PDE activity assays.
PDE activity was determined by a modification of the two-step procedure of Thompson and Appleman as described previously. In all reactions no more than 20% of the substrate was hydrolyzed. […] Inhibitors were dissolved and diluted in dimethyl sulfoxide (DMSO), with 1% final DMSO concentration in the reaction mixes. Control reactions with DMSO alone were always included. Data were analyzed using the GraphPad Prism software package (GraphPad, San Diego).

TbrPDEB1 and TbrPDEB2 = test system: TbrPDEB1 and TbrPDEB2; design: method as in PMID 22291195, PMID 22963052; details: cited from earlier work

CCCCCC[C@@H]([C@@H](C)O)n1cnc2c(N)ncnc21 (racemic) [EHNA, erythro-9-(2-hydroxy-3-nonyl)adenine]
EC50 [1]: > 50 µM | IC50 ([2]; read-out: Giardia PDE IC50): > 100 µM

COCc1nc2c([nH]1)c(=O)n(C)c(=O)n2CC(C)C [8'-MM-IBMX, 8-methoxymethyl-IBMX]
EC50 [1]: > 50 µM | IC50 ([2]; read-out: Giardia PDE IC50): > 100 µM

COc1ccc(Cc2nn3c([C@@H](CCCc4ccccc4)[C@@H](C)O)nc(C)c3c(=O)[nH]2)cc1OC [BAY 60–7550]
EC50 [1]: ~50 µM

C[C@H](Cc1nc2c(cnn2-c2ccccc2Cl)c(=O)[nH]1)C(F)(F)F [BAY 73–6691]
EC50 [1]: > 50 µM | IC50 ([2]; read-out: Giardia PDE IC50): > 100 µM

Cc1ccc([N+](=O)[O-])cc1S(=O)(=O)N(C)C [BRL 50481]
IC50 ([2]; read-out: Giardia PDE IC50): > 100 µM

CN(C(=O)CCCOc1ccc2[nH]c(=O)ccc2c1)C1CCCCC1 [Cilostamide, cilostamide]
EC50 ([1]; Giardia duodenalis): > 50 µM | IC50 ([2]; read-out: Giardia PDE IC50): > 100 µM

OCCN(CCO)c1nc(N2CCCCC2)c2nc(N(CCO)CCO)nc(N3CCCCC3)c2n1 [Dipyridamole, dipyridamole]
EC50 ([1]; Giardia duodenalis): > 50 µM | IC50 [2]: 26.3 µM | Activity against recombinant GlPDE in profiling assay [2]: showed promising activity against GlPDE

CCOC(=O)c1cnc2c(cnn2CC)c1NN=C(C)C [Etazolate, etatolate]
EC50 ([1]; Giardia duodenalis): > 50 µM | IC50 ([2]; read-out: Giardia PDE IC50): ~100 µM

CC(C)Cn1c(=O)n(C)c(=O)c2[nH]cnc21 [IBMX, isobutyl-methyl-xanthine]
EC50 ([1]; Giardia duodenalis): > 50 µM | IC50 ([2]; read-out: Giardia PDE IC50): > 100 µM

Cc1[nH]c(=O)c(C#N)cc1-c1ccncc1 [Milrinone, milrinone]
EC50 ([1]; Giardia duodenalis): > 50 µM | IC50 [2]: > 100 µM

COc1cc2ncnc(N3CC[C@@H](Oc4cnc5ccccc5n4)C3)c2cc1OC [NEU28]
EC50 [1]: 30.6 µM | IC50 ([2]; read-out: Giardia PDE IC50): ~100 µM

COc1ccc(C2=NN(C3CCCCCC3)C(=O)[C@@H]3CC=CC[C@H]23)cc1OCCCCOc1ccc(-c2nn[nH]n2)cc1 [NPD-001]
Effect on Giardia trophozoite proliferation [1]: also inhibited Giardia trophozoite proliferation | EC50 [1]: 6.9 µM | Activity against recombinant GlPDE in profiling assay [2]: showed promising activity against GlPDE | IC50 ([2]; read-out: Giardia PDE IC50): 0.8 µM | Potency against trypanosomal PDEs (TbrPDEB1 and TbrPDEB2): potencies in the nanomolar range

COc1ccc(Cc2nccc3cc(OC)c(OC)cc23)cc1OC [Papaverine, papaverine]
EC50 ([1]; Giardia duodenalis): > 50 µM | IC50 [2]: > 100 µM

CC(=O)CCCCn1c(=O)c2c(ncn2C)n(C)c1=O [Pentoxifylline, pentoxifylline]
EC50 ([1]; Giardia duodenalis): > 50 µM

COc1ccc(C(=O)Nc2c(Cl)cncc2Cl)cc1OC1CCCC1 [Piclamilast, piclamilast]
Effect on Giardia trophozoite proliferation [1]: also inhibited Giardia trophozoite proliferation | EC50 ([1]; Giardia duodenalis): 12 µM | IC50 [2]: 11.3 µM | Activity against recombinant GlPDE in profiling assay [2]: showed promising activity against GlPDE

CCCCOc1cc(CC2CNC(=O)N2)ccc1OC (stereo not drawn) [Ro20-1724]
EC50 [1]: > 50 µM | IC50 ([2]; read-out: Giardia PDE IC50): > 100 µM

O=C(Nc1c(Cl)cncc1Cl)c1ccc(OC(F)F)c(OCC2CC2)c1 [Roflumilast, roflumilast]
Effect on Giardia trophozoite proliferation [1]: also inhibited Giardia trophozoite proliferation | EC50 ([1]; Giardia duodenalis): 7.4 µM | IC50 [2]: 6 µM | Activity against recombinant GlPDE in profiling assay [2]: showed promising activity against GlPDE

COc1ccc(C2CNC(=O)C2)cc1OC1CCCC1 (stereo not drawn) [Rolipram, rolipram]
EC50 ([1]; Giardia duodenalis): > 50 µM | IC50 ([2]; read-out: Giardia PDE IC50): > 100 µM

CCCc1nn(C)c2c(=O)[nH]c(-c3cc(S(=O)(=O)N4CCN(C)CC4)ccc3OCC)nc12 [Sildenafil, sildenafil citrate]
EC50 ([1]; Giardia duodenalis): > 50 µM | IC50 [2]: > 100 µM

CN1CC(=O)N2[C@H](c3ccc4c(c3)OCO4)c3[nH]c4ccccc4c3C[C@@H]2C1=O [Tadalafil, tadalafil]
EC50 ([1]; Giardia duodenalis): > 50 µM | IC50 ([2]; read-out: Giardia PDE IC50): > 100 µM

COc1cc2c(cc1OC)-c1c/c(=N\c3c(C)cc(C)cc3C)n(C)c(=O)n1CC2 [Trequinsin, trequinsin]
EC50 ([1]; Giardia duodenalis): > 50 µM | IC50 [2]: > 100 µM

CCOC(=O)C1=C[C@]2(CC)CCCN3CCc4c(n1c1ccccc41)[C@@H]32 [Vinpocetine, vinpocetine]
EC50 ([1]; Giardia duodenalis): 16.3 µM | IC50 [2]: > 100 µM

CCCOc1ccccc1-c1nc2nn[nH]c2c(=O)[nH]1 [Zaprinast, zaprinast]
EC50 ([1]; Giardia duodenalis): > 50 µM | IC50 ([2]; read-out: Giardia PDE IC50): > 100 µM

COc1cc(-c2ccc(=O)[nH]n2)ccc1OC(F)F [Zardaverine, zardaverine]
EC50 ([1]; Giardia duodenalis): > 50 µM | IC50 [2]: > 100 µM

Nc1nc2c(ncn2[C@@H]2O[C@@H]3COP(=O)(O)O[C@H]3[C@H]2O)c(=O)[nH]1 [cGMP]
Acceptance as substrate by GlPDE ([2]; recombinant GlPDE(aa588-1371)): does not accept cGMP as a substrate
